Measurements: PMC11381475, “Biopharmaceutical profiling of anti-infective sanggenons from Morus alba root bark for inhalation administration” (International Journal of Pharmaceutics: X, 2024)
“Also recorded” adds a separate entry of the source.

Tests used:
[1] = test system: Calu-3 monolayer; test: bidirectional permeability across Calu-3 monolayer; settings: for concentration in the acceptor chamber (B-A): n = 3
[2] = control experiments for serum binding and adsorption to plastic
[3] = mice, doses up to 100 mg/kg, ref Langeder et al., 2023b; cited from earlier work
[4] = potentiometric logP, water-octanol (SiriusT3); format: physicochemical; settings: experimental, mean ± S.D., n = 3
Protocol: LogP (partition coefficient) evaluation was performed via SiriusT3. The potentiometric logP measurement relies on assessing the partition profile of the test substance within a two-phase water-octanol solvent system. Changes in the relative volume ratio of octanol to water lead to shifts in the apparent pKa, resulting from the partitioning between non-ionised and ionised forms. LogP values were then estimated based on these assessments.

[5] = test system: Calu-3 monolayer; test: MTT assay on Calu-3 monolayer after permeability study; format: cell-based, human; settings: after B-A permeability study
Protocol: To assess potential cytotoxic effects on the monolayer, cell culture medium (10% FBS, 1% P/S) containing 0.45 mg/mL MTT reagent was added to the inserts (300 µL) and wells (1500 µL). Cells treated with fluorescein (40 µg/mL) served as a control. Samples were then incubated for 3.5 hours at 37°C. Following incubation, the MTT solution was removed, and DMSO was added to dissolve the formazan crystals (300 µL for inserts; 1500 µL for wells). The plates were incubated on a shaking platform at 200 rpm in the absence of light for 30 minutes. Subsequently, 100 µL samples from each well were pipetted into a 96-well plate, and the absorbance was measured at 570 nm using an Epoch 2 spectrophotometer.

[6] = pH-dependent thermodynamic solubility, miniaturized shake-flask method, UPLC-PDA
[7] = UV-metric pKa measurement (SiriusT3); format: physicochemical; settings: experimental, SiriusT3, 25 °C, mean ± S.D.
Protocol: Experimental pKa (−log10 of the acid dissociation equilibrium constant) values of SGC and SGD were evaluated using the UV-metric pKa measurement method of the SiriusT3 automated titrator instrument and the corresponding software SiriusT3Control and SiriusT3Refine (Pion Inc., Billerica, USA). The SiriusT3 apparatus uses a deuterium lamp to determine the UV/Vis absorbance spectrum of the test solutions at each pH point. The standard aqueous UV-metric pKa measurement protocol was conducted according to manufacturer instructions. […] This was mixed with 25 μL phosphate buffer (14.7 mM K2HPO4 and 0.15 M KCl in MilliQ water) and diluted with 1.5 mL ionic strength-adjusted water (ISA water ≡ 0.15 M KCl in MilliQ water). The subsequent acid/base titration and measurement of UV absorbance was automatically performed by the SiriusT3 at 25.0 ± 0.5 °C. […] Turbidity was monitored by a turbidity sensor to ensure the absence of precipitation of the test compounds during the experiment, since accurate pKa measurements are limited to fully dissolved substances. In case turbidity occurred, individual titrations were not used for further analysis, resulting in a total of 11 analysable titrations across the 5 replicate samples for both SGC and SGD.

[8] = test system: Calu-3 cells; test: Calu-3 cell viability, MTT assay; settings: MTT
[9] = test system: Calu-3 monolayer; test: TEER of Calu-3 monolayer before and after permeability study
[10] = test system: Calu-3 cells; test: Calu-3 cell uptake, FIA-TOFMS; format: in vitro ADME, human; settings: 50 µg/mL; for Concentration [pg/µL] 1 in cell extract / Normalized concentration [pg/cell] 1: replicate 1; for Concentration [pg/µL] 2 in cell extract / Normalized concentration [pg/cell] 2: replicate 2; for Concentration [pg/µL] 3 in cell extract / Normalized concentration [pg/cell] 3: replicate 3
Protocol: At 4, 12, and 24 h after addition, cell extracts were generated in triplicates. To that end, the medium was aspirated from the respective wells, and cells were washed with pre-warmed ammonium carbonate solution (75 mM, pH 7.4, 37 °C). Immediately after removal of the wash solvent, 300 μL cold extraction solvent (40:40:20 acetonitrile:methanol:water, −20 °C) was added per well to lyse cells in situ and stop the enzymatic activity. The bottom of each well was subsequently scraped and the cell extracts were transferred to 96-well storage plates and stored at −80 °C until analysis. […] Quantification of SGC and SGD was performed using flow-injection time-of-flight mass spectrometry (FIA-TOFMS) in negative ion mode as described previously ([Fuhrer et al., 2011]). SGC and SGD signals were identified by matching accurate masses (for both [M-H]- at 707.2127 m/z). To account for possible influences of the complex matrix in the cell extract samples, a matrix-matched series of calibration samples were prepared, in which increasing concentrations of SGC were spiked into extracts of cells that had not previously been treated with either SGC or SGD. The calibration samples were injected alongside the cell extract samples and used to establish a calibration function using linear regression. The ion intensities measured were converted into SGC and SGD concentrations and normalized by the cell number in each sample, which was determined at each time point in separate cell cultures using trypan blue staining and cell counting in a Thermo Fisher Countess II Automated cell counter after trypsin-mediated cell detachment. This procedure eventually yielded estimates of SGC and SGD contents in pg/cell.

[11] = test system: SARS-CoV-2; set-up: method as in Wasilewicz et al., 2023; settings: reported to be based on inhibition of the viral main protease, ref Wasilewicz et al., 2023; read-out: anti-SARS-CoV-2 activity IC50; cited from earlier work
[12] = in vitro; settings: human
[13] = test system: Calu-3 cells; settings: cited from earlier work
[14] = test system: 16HBE14o- cells; settings: cited from earlier work
[15] = test system: NHBE cells; settings: cited from earlier work

sanggenon D [SGD]
amount detected in the acceptor chamber (B-A) ([1]; B-A, 2 h, isolated SGD or extracts): < 0.6%
concentration in the acceptor chamber (B-A) ([1]; SGD after applying MA21 600 μg/mL, B-A, 2 h): 7.9 ± 4.2 ng/mL
concentration in the acceptor chamber (B-A) ([1]; SGD after applying MA60 100 μg/mL, B-A, 2 h): 10.6 ± 5.7 ng/mL
permeability across intact Calu-3 monolayers ([1]; abstract statement): no measurable permeability
evidence for permeability of SGC or SGD ([1]; applied as extracts MA60 (100 μg/mL) and MA21 (600 μg/mL), 2 h): Neither by applying the isolated compounds nor the extracts MA60 and MA21, any evidence for the permeability of SGC or SGD was detectable
concentration in the acceptor chamber (B-A) ([1]; isolated SGD 20 μg/mL applied, B-A, 2 h): 35.4 ± 15.1 ng/mL
detection in the acceptor chamber after 2 h of incubation (A-B direction) ([1]; isolated compound 20 μg/mL, A-B): could not be detected
binding to serum proteins [2]: no indication that SGC or SGD bind to serum proteins
serum and tissue concentrations after oral administration [3]: low serum and tissue concentrations
logP [4]: 2.92 ± 0.07
cytotoxic effects on Calu-3 monolayer after permeability study (MTT) [5]: Neither batch 1 nor batch 2 showed a decrease in cell viability; also recorded: no cytotoxic effects
pH 1.2 solubility ([6]; compound within extract MA21, pH 1.2): < LOQ
pH 4.5 solubility ([6]; compound within extract MA21, pH 4.5): < LOQ
pH 6.8 solubility ([6]; compound within extract MA21, pH 6.8): < LOQ
pH 7.4 solubility ([6]; compound within extract MA21, pH 7.4): < LOQ
pH 1.2 solubility ([6]; compound within extract MA60, pH 1.2): 20.6 µg/mL
pH 4.5 solubility ([6]; compound within extract MA60, pH 4.5): 19.7 µg/mL
pH 6.8 solubility ([6]; compound within extract MA60, pH 6.8): 56.8 µg/mL
pH 7.4 solubility ([6]; compound within extract MA60, pH 7.4): 94.9 µg/mL
pH 1.2 solubility ([6]; isolated compound, HCl buffer pH 1.2, 24 h, 24 °C): 111 µg/mL
pH 4.5 solubility ([6]; isolated compound, acetate buffer pH 4.5, 24 h, 24 °C): 121 µg/mL
pH 6.8 solubility ([6]; isolated compound, phosphate buffer pH 6.8, 24 h, 24 °C): 304 µg/mL
pH 7.4 solubility ([6]; isolated compound, phosphate buffer pH 7.4, 24 h, 24 °C): 493 µg/mL
pKa 1 [7]: 3.27 ± 0.37
pKa 2 [7]: 6.37 ± 0.13
pKa 3 [7]: 7.25 ± 0.32
pKa 4 [7]: 7.99 ± 0.26
pKa 5 [7]: 8.99 ± 0.08
pKa 6 [7]: 9.94 ± 0.04
pKa 7 [7]: 10.78 ± 0.01
pKa 8 [7]: 12.04 ± 0.07
cytotoxic effects ([8]; 50 μg/mL, 4-h and 12-h incubation): no cytotoxic effects were observed
CC50 ([8]; Calu-3 cells, 24 h exposure): 120.5 µg/mL
change in TEER during permeability study, B-A direction ([9]; 20 µg/mL in basolateral chamber, 2 h, Calu-3 batch 1): significant decrease in TEER values; also recorded: loss in TEER
TEER after 24 h of incubating with medium at 37 °C ([9]; B-A directed test wells after permeability study): showed a recovery in TEER; also recorded: recovery to initial values
intracellular content, Mean [pg/cell] ([10]; 4 h): 0.3 ± 0.2 pg/cell
Concentration [pg/µL] 1 in cell extract ([10]; 4 h): 449 pg/µL
Normalized concentration [pg/cell] 1 ([10]; 4 h): 0.23 pg/cell
Concentration [pg/µL] 2 in cell extract ([10]; 4 h): 281 pg/µL
Normalized concentration [pg/cell] 2 ([10]; 4 h): 0.14 pg/cell
Concentration [pg/µL] 3 in cell extract ([10]; 4 h): 1158 pg/µL
Normalized concentration [pg/cell] 3 ([10]; 4 h): 0.60 pg/cell
intracellular content, Mean [pg/cell] ([10]; 4 h, listed as Sanggenon D): 0.32 pg/cell
intracellular content, Mean [pg/cell] ([10]; 12 h): 0.54 pg/cell
Concentration [pg/µL] 1 in cell extract ([10]; 12 h): 1137 pg/µL
Normalized concentration [pg/cell] 1 ([10]; 12 h): 0.57 pg/cell
Concentration [pg/µL] 2 in cell extract ([10]; 12 h): 1116 pg/µL
Normalized concentration [pg/cell] 2 ([10]; 12 h): 0.55 pg/cell
Concentration [pg/µL] 3 in cell extract ([10]; 12 h): 1014 pg/µL
Normalized concentration [pg/cell] 3 ([10]; 12 h): 0.50 pg/cell
intracellular content, Mean [pg/cell] ([10]; 24 h): 0.69 pg/cell
Concentration [pg/µL] 1 in cell extract ([10]; 24 h): 1552 pg/µL
Normalized concentration [pg/cell] 1 ([10]; 24 h): 0.59 pg/cell
Concentration [pg/µL] 2 in cell extract ([10]; 24 h): 2206 pg/µL
Normalized concentration [pg/cell] 2 ([10]; 24 h): 0.84 pg/cell
Concentration [pg/µL] 3 in cell extract ([10]; 24 h): 1671 pg/µL
Normalized concentration [pg/cell] 3 ([10]; 24 h): 0.63 pg/cell
IC50 [11]: 13.9 µM

COCCc1ccc(OCC(O)CNC(C)C)cc1 (stereo not drawn) [metoprolol]
Papp A→B at 2 h, 500 μM [12]: 25.4 ± 6.9 ×10⁻⁶ cm/s
Papp B→A at 2 h, 500 μM [12]: 23.3 ± 4.9 ×10⁻⁶ cm/s
Papp [13]: 10.3 ± 0.0 × 10^−6 cm/s
Papp [14]: 24.5 ± 2.5 × 10^−6 cm/s
Papp [15]: 11.3 ± 0.7 × 10^−6 cm/s
